The source made the active and inactive calls. The rule behind the calls is not given here.
Experiments:
[1] = target: T1, Acetylcholinesterase (Mus musculus) (UniProt P21836); assay: Reactivation of TEPP inhibited mouse brain AChE at 30 uM; format: functional; design: scale not given: the % may be the effect or the level left
T1 sequence (whole entry): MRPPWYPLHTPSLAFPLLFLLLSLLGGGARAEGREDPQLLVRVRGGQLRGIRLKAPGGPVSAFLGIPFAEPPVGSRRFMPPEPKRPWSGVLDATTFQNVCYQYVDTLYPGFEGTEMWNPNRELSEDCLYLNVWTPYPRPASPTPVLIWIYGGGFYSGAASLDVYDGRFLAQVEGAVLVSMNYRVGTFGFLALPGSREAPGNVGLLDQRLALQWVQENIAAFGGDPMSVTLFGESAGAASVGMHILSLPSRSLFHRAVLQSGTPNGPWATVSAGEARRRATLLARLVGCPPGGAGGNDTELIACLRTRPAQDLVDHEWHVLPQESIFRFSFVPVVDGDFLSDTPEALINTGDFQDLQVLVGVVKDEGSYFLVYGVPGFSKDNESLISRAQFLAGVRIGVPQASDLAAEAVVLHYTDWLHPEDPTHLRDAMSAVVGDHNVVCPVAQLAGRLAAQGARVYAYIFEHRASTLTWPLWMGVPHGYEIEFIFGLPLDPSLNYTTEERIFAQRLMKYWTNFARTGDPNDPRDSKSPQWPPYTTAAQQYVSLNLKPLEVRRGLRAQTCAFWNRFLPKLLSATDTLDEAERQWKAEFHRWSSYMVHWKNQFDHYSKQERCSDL

[2] = target: T1, Acetylcholinesterase (Mus musculus); assay: Potentiation of inhibition of AChE by TEPP in mouse brain at 300 uM; format: functional, tissue-based
[3] = target: T1, Acetylcholinesterase (Mus musculus); assay: Reactivation of TEPP inhibited AChE in mouse brain at 100 uM; format: functional, tissue-based; design: scale not given: the % may be the effect or the level left
[4] = target: T1, Acetylcholinesterase (Mus musculus); assay: Reactivation of TEPP inhibited AChE in mouse brain at 50 uM; format: functional, tissue-based
[5] = target: T1, Acetylcholinesterase (Mus musculus); assay: Reactivation of TEPP inhibited AChE in mouse brain at 250 uM; format: functional, tissue-based
[6] = target: T1, Acetylcholinesterase (Mus musculus); assay: Reactivation of TEPP inhibited AChE in mouse brain at 300 uM; format: functional, tissue-based
[7] = target: T1, Acetylcholinesterase (Mus musculus); assay: Reactivation of TEPP inhibited AChE in mouse brain at 150 uM; format: functional, tissue-based
[8] = target: T1, Acetylcholinesterase (Mus musculus); assay: Reactivation of TEPP inhibited AChE in mouse brain at 200 uM; format: functional, tissue-based
[9] = target: T1, Acetylcholinesterase (Mus musculus); assay: Potentiation of inhibition of AChE by TEPP in mouse brain at 100 uM; format: functional, tissue-based

O/N=C/c1cc[n+](CCCCCCC[n+]2ccc(/C=N/O)cc2)cc1
Activity [1]: 39% | Activity [2]: Active | Activity [3]: 14%

NC(=O)c1cc[n+](CCCCCCCC[n+]2ccc(/C=N/O)cc2)cc1
Activity [3]: inactive | Activity [4]: inactive | Activity [5]: inactive | Activity [6]: inactive | Activity [7]: inactive | Activity [8]: inactive

O/N=C/c1cc[n+](CCCCCCCC[n+]2ccc(/C=N/O)cc2)cc1
Activity [3]: inactive | Activity [4]: inactive | Activity [5]: inactive | Activity [6]: inactive | Activity [7]: inactive | Activity [8]: inactive

O/N=C/c1cc[n+](CCCCCCCCC[n+]2ccc(/C=N/O)cc2)cc1
Activity [3]: inactive | Activity [4]: inactive | Activity [5]: inactive | Activity [6]: inactive | Activity [7]: inactive | Activity [8]: inactive

NC(=O)c1ccc[n+](CCCCCCC[n+]2ccc(/C=N/O)cc2)c1
Activity [1]: 23% | Activity [9]: Active | Activity [2]: Active

NC(=O)c1ccc[n+](CCCCCCCC[n+]2ccc(/C=N/O)cc2)c1
Activity [3]: inactive | Activity [4]: inactive | Activity [5]: inactive | Activity [6]: inactive | Activity [7]: inactive | Activity [8]: inactive

NC(=O)c1cc[n+](CCCCCCCCC[n+]2ccc(/C=N/O)cc2)cc1
Activity [3]: inactive | Activity [4]: inactive | Activity [5]: inactive | Activity [6]: inactive | Activity [7]: inactive | Activity [8]: inactive

NC(=O)c1cc[n+](CCCCCCC[n+]2ccc(/C=N/O)cc2)cc1
Activity [1]: 15% | Activity [9]: Active | Activity [2]: Active

NC(=O)c1ccc[n+](CCCCCCCCC[n+]2ccc(/C=N/O)cc2)c1
Activity [3]: inactive | Activity [4]: inactive | Activity [5]: inactive | Activity [6]: inactive | Activity [7]: inactive | Activity [8]: inactive

— ChEMBL document CHEMBL1146945, “Quaternary salts of 4,3' and 4,4' bis-pyridinium monooximes. Part 2: synthesis and biological activity” (Bioorg Med Chem Lett, 2006)
